Patent publication US20240279278A1, “NMU RECEPTOR 2 AGONISTS” (Boehringer Ingelheim International GmbH, priority 2023, published 2024)
Residues, ends and D or L forms follow the SMILES beside them.

Columns and labels:
human NMUR1 receptor = molecular target: T1, human NMUR1 receptor (Homo sapiens, UniProt Q9HB89); experiment: IP1 Gq HTRF assay, activation of human NMUR1 in buffer; type: cell-based; details: CHO-K1 cells expressing human NMUR1, stimulation buffer with 0.1% BSA; read-out: EC50 (hNMUR1) buffer
T1 construct: expressed in transfected cells; host or cells: CHO-K1
T1 sequence (Q9HB89 1-426): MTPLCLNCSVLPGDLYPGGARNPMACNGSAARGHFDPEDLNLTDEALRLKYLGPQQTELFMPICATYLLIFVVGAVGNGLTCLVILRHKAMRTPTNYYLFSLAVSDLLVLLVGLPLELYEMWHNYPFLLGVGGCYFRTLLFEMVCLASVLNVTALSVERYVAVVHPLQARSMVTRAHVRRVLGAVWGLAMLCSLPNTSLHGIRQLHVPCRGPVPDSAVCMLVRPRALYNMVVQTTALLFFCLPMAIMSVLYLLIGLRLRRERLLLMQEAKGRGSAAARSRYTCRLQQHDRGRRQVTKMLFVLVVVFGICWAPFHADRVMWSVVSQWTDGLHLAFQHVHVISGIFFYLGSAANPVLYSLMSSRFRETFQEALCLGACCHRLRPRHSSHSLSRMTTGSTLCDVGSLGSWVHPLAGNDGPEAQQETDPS
Summary of the method: (§1)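 CHO-K1 cells stably expressing human NMUR1 or NMUR2, seeded 24 h before assay, stimulated with peptide agonists (8-point dose-response, 1% DMSO final) in HEPES/HBSS buffer with 50 mM LiCl and 0.1% BSA, pH 7.4, 1 h at 37 °C. IP1 accumulation read by HTRF competition (665/620 nm); EC50 from 4-parameter sigmoidal fit.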

[1] = Effect on acute food intake in normal NMRI mice; type: in vivo; details: male NMRI mice, single subcutaneous dose 100 nmol/kg, normalized to vehicle group
Procedure: Example 9: Pharmacodynamics Effect on Acute Food Intake in Normal NMRI Mice
Male NMRI mice were obtained from Charles River (Charles River, Research Models & Services Germany GmbH) or from JanVier (JanVier Labs, France) at 3 weeks of age. The animals were group housed 4 mice pr. cage under a 12/12 hours dark-light cycle, light off at 3 pm. Room temperature was controlled to 21° C.±1° C., with 60%±20% humidity. Animals had ad libitum access to regular rodent chow (KLIBA Nafag 3430 or Altromin 1324, Brogaarden, Denmark) and tap water. Animals were transferred at 6 weeks of age, 5-7 days before the start of the study to a real-time food intake monitoring system, HM-2 system (MBRose, Denmark), to allow acclimatization to experimental conditions. As the animals were uniquely identified with microchips, each individual animal was identified by its microchip upon entry and exit from the food channel. Randomization of the mice for each study group (n=8-11) was based on body weight measured the day before the start of the study. A vehicle-treated (50 mM acetate buffer pH 7.4 with 3.5% mannitol) group was included in each experiment. Six hours before the start of the night phase animals were fasted. One hour before the dark phase animals were dosed once subcutaneously with test peptide. Food intake was reported hourly for a period of 24 hours. The food intake of the treated groups was normalized (in %) to the average food intake of the group receiving vehicle (table 10). Statistical significance was evaluated using One-way analysis of variance with Bonferroni's multiple comparison test. P<0.05 was considered statistically significant.

human NMUR2 receptor [2] = molecular target: T2, human NMUR2 receptor (Homo sapiens, UniProt Q9GZQ4); experiment: IP1 Gq HTRF assay, activation of human NMUR2 in buffer; type: cell-based; design: expressed in transfected cells; host or cells: CHO-K1; details: CHO-K1 cells expressing human NMUR2, stimulation buffer with 0.1% BSA; read-out: EC50 (hNMUR2) buffer
T2 sequence (Q9GZQ4 whole entry): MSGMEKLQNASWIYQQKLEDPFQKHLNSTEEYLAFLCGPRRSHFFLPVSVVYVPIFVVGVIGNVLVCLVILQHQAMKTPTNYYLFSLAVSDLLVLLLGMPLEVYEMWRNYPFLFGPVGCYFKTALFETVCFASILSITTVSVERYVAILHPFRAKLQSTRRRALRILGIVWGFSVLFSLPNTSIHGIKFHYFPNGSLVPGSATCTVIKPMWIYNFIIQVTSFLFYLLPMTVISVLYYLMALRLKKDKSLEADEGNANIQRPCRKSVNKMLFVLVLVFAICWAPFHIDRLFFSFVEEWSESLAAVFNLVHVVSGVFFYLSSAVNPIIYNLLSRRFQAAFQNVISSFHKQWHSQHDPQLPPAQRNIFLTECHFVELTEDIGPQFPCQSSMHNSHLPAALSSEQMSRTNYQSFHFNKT
Summary of the method: as §1

human NMUR2 receptor [3] = molecular target: T2, human NMUR2 receptor; experiment: IP1 Gq HTRF assay, activation of human NMUR2 in human plasma; type: cell-based; design: expressed in transfected cells; host or cells: CHO-K1; details: CHO-K1 cells expressing human NMUR2, 100% human plasma; read-out: EC50 (hNMUR2) human plasma
Summary of the method: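 CHO-K1 cells stably expressing human NMUR2 exposed to peptide agonists (8-point dose-response) in 100% human plasma with 50 mM LiCl, 1% DMSO, for 1 h at 37° C. IP1 accumulation read by HTRF competition (665/620 nm ratio). EC50 from 4-parameter sigmoidal fit.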

Structure (SMILES)	EC50 (human NMUR1 receptor) [nM]	Acute Food Intake 24 h [1] [% vehicle]	EC50 (human NMUR2 receptor [2]) [nM]	EC50 (human NMUR2 receptor [3]) [nM]
CCCC[C@H](NC(=O)[C@H](CC(C)C)N(C)C(=O)[C@H](Cc1ccccc1)NC(=O)[C@H](Cc1ccc(O)cc1)NC(=O)CN1CCN(CCNC(=O)CN(C)C(=O)CN(C)C(=O)CN(C)C(=O)CN(C)C(=O)CN(C)C(=O)CN(C)C(=O)CN(C)C(=O)CN(C)C(=O)CN(C)C(=O)CN(C)C(=O)CN(C)C(=O)CN(C)C(=O)CN(C)C(=O)CN(C)C(=O)CN(C)C(=O)CC[C@H](NC(=O)CC[C@H](NC(=O)CC[C@H](NC(=O)CCCCCCCCCCCCCCCCCCC(=O)O)C(=O)O)C(=O)O)C(=O)O)CC1)C(=O)N[C@@H](CCN)C(=O)N1CCC[C@H]1C(=O)N[C@@H](CCCNC(=N)N)C(=O)NCC(N)=O [Compound 42, C20DA-gGlu3-Sar15-AEPipAc-Tyr-Phe-NMeLeu-Nle-Dbu-Pro-Arg-Gly-NH2] (HELM PEPTIDE1{[O=C(O)CCCCCCCCCCCCCCCCCCC(=O)[*:2]].[gGlu].[gGlu].[gGlu].[Sar].[Sar].[Sar].[Sar].[Sar].[Sar].[Sar].[Sar].[Sar].[Sar].[Sar].[Sar].[Sar].[Sar].[Sar].[O=C(CN1CCN(CCN[*:1])CC1)[*:2]].Y.F.[meL].[Nle].[Dab].P.R.G.[am]}$$$$V2.0)	1500	41	3.2	5.8
CCCC[C@H](NC(=O)[C@H](CC(C)C)N(C)C(=O)[C@H](Cc1ccccc1)NC(=O)[C@H](Cc1ccc(O)cc1)NC(=O)CN1CCN(CCNC(=O)CN(C)C(=O)CN(C)C(=O)CN(C)C(=O)CN(C)C(=O)CN(C)C(=O)CN(C)C(=O)CN(C)C(=O)CN(C)C(=O)CN(C)C(=O)CN(C)C(=O)CN(C)C(=O)CN(C)C(=O)CN(C)C(=O)CN(C)C(=O)CN(C)C(=O)CC[C@H](NC(=O)CC[C@H](NC(=O)CC[C@H](NC(=O)CCCCCCCCCCCCCCCCCCC(=O)O)C(=O)O)C(=O)O)C(=O)O)CC1)C(=O)N[C@@H](CCN)C(=O)N(C)[C@@H](C)C(=O)N[C@@H](CCCNC(=N)N)C(=O)NCC(N)=O [Compound 43, C20DA-gGlu3-Sar15-AEPipAc-Tyr-Phe-NMeLeu-Nle-Dbu-NMeAla-Arg-Gly-NH2] (HELM PEPTIDE1{[O=C(O)CCCCCCCCCCCCCCCCCCC(=O)[*:2]].[gGlu].[gGlu].[gGlu].[Sar].[Sar].[Sar].[Sar].[Sar].[Sar].[Sar].[Sar].[Sar].[Sar].[Sar].[Sar].[Sar].[Sar].[Sar].[O=C(CN1CCN(CCN[*:1])CC1)[*:2]].Y.F.[meL].[Nle].[Dab].[meA].R.G.[am]}$$$$V2.0)	> 1000	28	3.9	10.1
